Data as given in ChEMBL document CHEMBL4052714, “Synthesis and antibacterial activity of novel 4″-O-(1-aralkyl-1,2,3-triazol-4-methyl-carbamoyl) azithromycin analogs” (2017).
≈ marks a conversion by molar mass, not a printed value.

Assays:
Type in all cases: functional
Streptococcus pyogenes [1] = assay: Antibacterial activity against erythromycin-susceptible Streptococcus pyogenes isolate S2
Staphylococcus aureus [2] = assay: Antibacterial activity against erythromycin-susceptible Staphylococcus aureus ATCC 25923
Streptococcus pneumoniae [3] = assay: Antibacterial activity against erythromycin-susceptible Streptococcus pneumoniae ATCC 49619
Streptococcus pneumoniae [4] = assay: Antibacterial activity against erythromycin-resistant Streptococcus pneumoniae A22072 expressing mefA gene
Staphylococcus aureus [5] = assay: Antibacterial activity against methicillin-susceptible Staphylococcus aureus ATCC 29213
Streptococcus pneumoniae [6] = assay: Antibacterial activity against erythromycin-resistant Streptococcus pneumoniae B1 expressing ermB gene
Escherichia coli = assay: Antibacterial activity against Escherichia coli ATCC 25922
Pseudomonas aeruginosa = assay: Antibacterial activity against Pseudomonas aeruginosa ATCC 27853
Streptococcus pyogenes [7] = assay: Antibacterial activity against erythromycin-resistant Streptococcus pyogenes isolate R2
Streptococcus pneumoniae [8] = assay: Antibacterial activity against erythromycin-resistant Streptococcus pneumoniae AB11 expressing ermB/mefA gene

Compound | MIC (Streptococcus pyogenes [1]) | MIC (Staphylococcus aureus [2]) | MIC (Streptococcus pneumoniae [3]) | MIC (Streptococcus pneumoniae [4]) | MIC (Staphylococcus aureus [5]) | MIC (Streptococcus pneumoniae [6]) | MIC (Escherichia coli) | MIC (Pseudomonas aeruginosa) | MIC (Streptococcus pyogenes [7]) | MIC (Streptococcus pneumoniae [8])
CC[C@H]1OC(=O)[C@H](C)[C@@H](O[C@H]2C[C@@](C)(OC)[C@@H](OC(=O)NCc3cn(Cc4ccccc4Cl)nn3)[C@H](C)O2)[C@H](C)[C@@H](O[C@@H]2O[C@H](C)C[C@H](N(C)C)[C@H]2O)[C@](C)(O)C[C@@H](C)CN(C)[C@H](C)[C@@H](O)[C@]1(C)O | 0.03 µg/mL (≈ 0.0301 µM) | 1 µg/mL (≈ 1 µM) | 0.25 µg/mL (≈ 0.251 µM) | 0.25 µg/mL (≈ 0.251 µM) | 8 µg/mL (≈ 8.02 µM) | 1 µg/mL (≈ 1 µM) | 128 µg/mL (≈ 128 µM) | 32 µg/mL (≈ 32.1 µM) | 64 µg/mL (≈ 64.1 µM) | 0.5 µg/mL (≈ 0.501 µM)
CC[C@H]1OC(=O)[C@H](C)[C@@H](O[C@H]2C[C@@](C)(OC)[C@@H](OC(=O)NCc3cn(Cc4ccccc4C)nn3)[C@H](C)O2)[C@H](C)[C@@H](O[C@@H]2O[C@H](C)C[C@H](N(C)C)[C@H]2O)[C@](C)(O)C[C@@H](C)CN(C)[C@H](C)[C@H]2OC(=O)O[C@@]21C | 0.06 µg/mL (≈ 0.0598 µM) | 4 µg/mL (≈ 3.99 µM) | 0.5 µg/mL (≈ 0.498 µM) | 2 µg/mL (≈ 1.99 µM) | 32 µg/mL (≈ 31.9 µM) | 4 µg/mL (≈ 3.99 µM) | 128 µg/mL (≈ 128 µM) | 64 µg/mL (≈ 63.8 µM) | 64 µg/mL (≈ 63.8 µM) | 2 µg/mL (≈ 1.99 µM)
CC[C@H]1OC(=O)[C@H](C)[C@@H](O[C@H]2C[C@@](C)(OC)[C@@H](OC(=O)NCc3cn(Cc4ccccc4)nn3)[C@H](C)O2)[C@H](C)[C@@H](O[C@@H]2O[C@H](C)C[C@H](N(C)C)[C@H]2O)[C@](C)(O)C[C@@H](C)CN(C)[C@H](C)[C@@H](O)[C@]1(C)O | 0.06 µg/mL (≈ 0.0623 µM) | 1 µg/mL (≈ 1.04 µM) | 0.5 µg/mL (≈ 0.519 µM) | 1 µg/mL (≈ 1.04 µM) | 8 µg/mL (≈ 8.31 µM) | 2 µg/mL (≈ 2.08 µM) | 32 µg/mL (≈ 33.2 µM) | 32 µg/mL (≈ 33.2 µM) | 32 µg/mL (≈ 33.2 µM) | 4 µg/mL (≈ 4.15 µM)
CC[C@H]1OC(=O)[C@H](C)[C@@H](O[C@H]2C[C@@](C)(OC)[C@@H](OC(=O)NCc3cn(Cc4ccc(Cl)cc4)nn3)[C@H](C)O2)[C@H](C)[C@@H](O[C@@H]2O[C@H](C)C[C@H](N(C)C)[C@H]2O)[C@](C)(O)C[C@@H](C)CN(C)[C@H](C)[C@@H](O)[C@]1(C)O | 0.03 µg/mL (≈ 0.0301 µM) | 1 µg/mL (≈ 1 µM) | 0.5 µg/mL (≈ 0.501 µM) | 1 µg/mL (≈ 1 µM) | 16 µg/mL (≈ 16 µM) | 2 µg/mL (≈ 2 µM) | 64 µg/mL (≈ 64.1 µM) | 32 µg/mL (≈ 32.1 µM) | 64 µg/mL (≈ 64.1 µM) | 0.5 µg/mL (≈ 0.501 µM)
CC[C@H]1OC(=O)[C@H](C)[C@@H](O[C@H]2C[C@@](C)(OC)[C@@H](OC(=O)NCc3cn(Cc4ccc(C)cc4)nn3)[C@H](C)O2)[C@H](C)[C@@H](O[C@@H]2O[C@H](C)C[C@H](N(C)C)[C@H]2O)[C@](C)(O)C[C@@H](C)CN(C)[C@H](C)[C@@H](O)[C@]1(C)O | 0.03 µg/mL (≈ 0.0307 µM) | 1 µg/mL (≈ 1.02 µM) | 0.5 µg/mL (≈ 0.512 µM) | 0.5 µg/mL (≈ 0.512 µM) | 16 µg/mL (≈ 16.4 µM) | 0.5 µg/mL (≈ 0.512 µM) | 32 µg/mL (≈ 32.7 µM) | 64 µg/mL (≈ 65.5 µM) | 64 µg/mL (≈ 65.5 µM) | 1 µg/mL (≈ 1.02 µM)
CC[C@H]1OC(=O)[C@H](C)[C@@H](O[C@H]2C[C@@](C)(OC)[C@@H](OC(=O)NCc3cn(Cc4cccc(Cl)c4)nn3)[C@H](C)O2)[C@H](C)[C@@H](O[C@@H]2O[C@H](C)C[C@H](N(C)C)[C@H]2O)[C@](C)(O)C[C@@H](C)CN(C)[C@H](C)[C@@H](O)[C@]1(C)O | 0.06 µg/mL (≈ 0.0601 µM) | 1 µg/mL (≈ 1 µM) | 0.25 µg/mL (≈ 0.251 µM) | 0.25 µg/mL (≈ 0.251 µM) | 8 µg/mL (≈ 8.02 µM) | 0.5 µg/mL (≈ 0.501 µM) | 16 µg/mL (≈ 16 µM) | 32 µg/mL (≈ 32.1 µM) | 64 µg/mL (≈ 64.1 µM) | 1 µg/mL (≈ 1 µM)
CC[C@H]1OC(=O)[C@H](C)[C@@H](O[C@H]2C[C@@](C)(OC)[C@@H](O)[C@H](C)O2)[C@H](C)[C@@H](O[C@@H]2O[C@H](C)C[C@H](N(C)C)[C@H]2O)[C@](C)(O)C[C@@H](C)CN(C)[C@H](C)[C@@H](O)[C@]1(C)O [AZITHROMYCIN] | 0.03 µg/mL (≈ 0.0401 µM) | 0.25 µg/mL (≈ 0.334 µM) | 0.125 µg/mL (≈ 0.167 µM) | 4 µg/mL (≈ 5.34 µM) | 1 µg/mL (≈ 1.34 µM) | 128 µg/mL (≈ 171 µM) | 16 µg/mL (≈ 21.4 µM) | 8 µg/mL (≈ 10.7 µM) | 128 µg/mL (≈ 171 µM) | 256 µg/mL (≈ 342 µM)
CC[C@H]1OC(=O)[C@H](C)[C@@H](O[C@H]2C[C@@](C)(OC)[C@@H](O)[C@H](C)O2)[C@H](C)[C@@H](O[C@@H]2O[C@H](C)C[C@H](N(C)C)[C@H]2O)[C@](C)(OC)C[C@@H](C)C(=O)[C@H](C)[C@@H](O)[C@]1(C)O [CLARITHROMYCIN] | 0.03 µg/mL (≈ 0.0401 µM) | 0.12 µg/mL (≈ 0.16 µM) | 0.125 µg/mL (≈ 0.167 µM) | 4 µg/mL (≈ 5.35 µM) | 0.25 µg/mL (≈ 0.334 µM) | 128 µg/mL (≈ 171 µM) | 64 µg/mL (≈ 85.6 µM) | 32 µg/mL (≈ 42.8 µM) | 128 µg/mL (≈ 171 µM) | 128 µg/mL (≈ 171 µM)
